Experiment [1] has as its system hUpf1/SMG-2 in HeLa cells. In words: mobility shift of hUpf1/SMG-2 in HeLa cells treated with okadaic acid, Western blotting. The format is cell-based, human. The following applies: various concentrations, 4.5 hours, FIG. 23. The method, then:
The HeLa cells were treated with various concentrations of okadaic acid (OA; Calbiochem) for 4.5 hours, and then were recovered and dissolved in the 1×SDS sample buffer. After 6% SDS-PAGE was performed, Western blotting using an anti-hUpf1/SMG-2 antibody was performed to determine the mobility shift of hUpf1/SMG-2.
On the technique in general: Immunoblotting shows a protein as a band on a membrane.

The subject of experiment [2] is BGG-39PTC mRNA in MEF-Tet OFF cells. The experiment can be described thus: BGG reporter mRNA accumulation (NMD) in MEF-Tet OFF cells, Northern blotting. It counts as cell-based. The note with it: 4.5 hours, 50 ng/ml doxycycline, FIG. 29. As for the experimental part:
More particularly, MEF-Tet OFF cells were transfected with the reporter plasmid BGG-WT or the reporter plasmid BGG-39 PTC, and re-inoculated in eight dishes. The cells were then treated for 4.5 hours in the presence of 50 ng/ml doxycycline by various concentrations of caffeine (caff.), wortmannin (wort.), rapamycin (rap.), or cyclohexamide (CHX) shown in FIG. 29.
The Total RNA was analyzed by Northern blotting using the BGG probe. In FIG. 29, “BG WT” means the results in the case of use of the reporter plasmid BGG-WT, “BG PTC” means the results in the case of use of the reporter plasmid BGG-39PTC, and “GAPDH” means the results in the case of use of the cDNA of glyceryl aldehyde-3-phosphate dehydrogenase as a probe. Further, “cont.”, “caff.”, “wort.”, “rap.”, and “CHX” show the results of the control (that is, in the absence of wortmannin, caffeine, rapamycin, and cyclohexamide), the results in the presence of caffeine, the results in the presence of wortmannin, the results in the presence of rapamycin, and the results in the presence of cyclohexamide, respectively.

Experiment [3] deals with T1, 6H-hSMG-1 (Homo sapiens, UniProt Q96Q15).
T1 construct: made in house; host or cells: 293T cells transfected with SR6H-hSMG-1; immunoprecipitated with anti-polyhistidine antibody
T1 sequence (Q96Q15 111-3661): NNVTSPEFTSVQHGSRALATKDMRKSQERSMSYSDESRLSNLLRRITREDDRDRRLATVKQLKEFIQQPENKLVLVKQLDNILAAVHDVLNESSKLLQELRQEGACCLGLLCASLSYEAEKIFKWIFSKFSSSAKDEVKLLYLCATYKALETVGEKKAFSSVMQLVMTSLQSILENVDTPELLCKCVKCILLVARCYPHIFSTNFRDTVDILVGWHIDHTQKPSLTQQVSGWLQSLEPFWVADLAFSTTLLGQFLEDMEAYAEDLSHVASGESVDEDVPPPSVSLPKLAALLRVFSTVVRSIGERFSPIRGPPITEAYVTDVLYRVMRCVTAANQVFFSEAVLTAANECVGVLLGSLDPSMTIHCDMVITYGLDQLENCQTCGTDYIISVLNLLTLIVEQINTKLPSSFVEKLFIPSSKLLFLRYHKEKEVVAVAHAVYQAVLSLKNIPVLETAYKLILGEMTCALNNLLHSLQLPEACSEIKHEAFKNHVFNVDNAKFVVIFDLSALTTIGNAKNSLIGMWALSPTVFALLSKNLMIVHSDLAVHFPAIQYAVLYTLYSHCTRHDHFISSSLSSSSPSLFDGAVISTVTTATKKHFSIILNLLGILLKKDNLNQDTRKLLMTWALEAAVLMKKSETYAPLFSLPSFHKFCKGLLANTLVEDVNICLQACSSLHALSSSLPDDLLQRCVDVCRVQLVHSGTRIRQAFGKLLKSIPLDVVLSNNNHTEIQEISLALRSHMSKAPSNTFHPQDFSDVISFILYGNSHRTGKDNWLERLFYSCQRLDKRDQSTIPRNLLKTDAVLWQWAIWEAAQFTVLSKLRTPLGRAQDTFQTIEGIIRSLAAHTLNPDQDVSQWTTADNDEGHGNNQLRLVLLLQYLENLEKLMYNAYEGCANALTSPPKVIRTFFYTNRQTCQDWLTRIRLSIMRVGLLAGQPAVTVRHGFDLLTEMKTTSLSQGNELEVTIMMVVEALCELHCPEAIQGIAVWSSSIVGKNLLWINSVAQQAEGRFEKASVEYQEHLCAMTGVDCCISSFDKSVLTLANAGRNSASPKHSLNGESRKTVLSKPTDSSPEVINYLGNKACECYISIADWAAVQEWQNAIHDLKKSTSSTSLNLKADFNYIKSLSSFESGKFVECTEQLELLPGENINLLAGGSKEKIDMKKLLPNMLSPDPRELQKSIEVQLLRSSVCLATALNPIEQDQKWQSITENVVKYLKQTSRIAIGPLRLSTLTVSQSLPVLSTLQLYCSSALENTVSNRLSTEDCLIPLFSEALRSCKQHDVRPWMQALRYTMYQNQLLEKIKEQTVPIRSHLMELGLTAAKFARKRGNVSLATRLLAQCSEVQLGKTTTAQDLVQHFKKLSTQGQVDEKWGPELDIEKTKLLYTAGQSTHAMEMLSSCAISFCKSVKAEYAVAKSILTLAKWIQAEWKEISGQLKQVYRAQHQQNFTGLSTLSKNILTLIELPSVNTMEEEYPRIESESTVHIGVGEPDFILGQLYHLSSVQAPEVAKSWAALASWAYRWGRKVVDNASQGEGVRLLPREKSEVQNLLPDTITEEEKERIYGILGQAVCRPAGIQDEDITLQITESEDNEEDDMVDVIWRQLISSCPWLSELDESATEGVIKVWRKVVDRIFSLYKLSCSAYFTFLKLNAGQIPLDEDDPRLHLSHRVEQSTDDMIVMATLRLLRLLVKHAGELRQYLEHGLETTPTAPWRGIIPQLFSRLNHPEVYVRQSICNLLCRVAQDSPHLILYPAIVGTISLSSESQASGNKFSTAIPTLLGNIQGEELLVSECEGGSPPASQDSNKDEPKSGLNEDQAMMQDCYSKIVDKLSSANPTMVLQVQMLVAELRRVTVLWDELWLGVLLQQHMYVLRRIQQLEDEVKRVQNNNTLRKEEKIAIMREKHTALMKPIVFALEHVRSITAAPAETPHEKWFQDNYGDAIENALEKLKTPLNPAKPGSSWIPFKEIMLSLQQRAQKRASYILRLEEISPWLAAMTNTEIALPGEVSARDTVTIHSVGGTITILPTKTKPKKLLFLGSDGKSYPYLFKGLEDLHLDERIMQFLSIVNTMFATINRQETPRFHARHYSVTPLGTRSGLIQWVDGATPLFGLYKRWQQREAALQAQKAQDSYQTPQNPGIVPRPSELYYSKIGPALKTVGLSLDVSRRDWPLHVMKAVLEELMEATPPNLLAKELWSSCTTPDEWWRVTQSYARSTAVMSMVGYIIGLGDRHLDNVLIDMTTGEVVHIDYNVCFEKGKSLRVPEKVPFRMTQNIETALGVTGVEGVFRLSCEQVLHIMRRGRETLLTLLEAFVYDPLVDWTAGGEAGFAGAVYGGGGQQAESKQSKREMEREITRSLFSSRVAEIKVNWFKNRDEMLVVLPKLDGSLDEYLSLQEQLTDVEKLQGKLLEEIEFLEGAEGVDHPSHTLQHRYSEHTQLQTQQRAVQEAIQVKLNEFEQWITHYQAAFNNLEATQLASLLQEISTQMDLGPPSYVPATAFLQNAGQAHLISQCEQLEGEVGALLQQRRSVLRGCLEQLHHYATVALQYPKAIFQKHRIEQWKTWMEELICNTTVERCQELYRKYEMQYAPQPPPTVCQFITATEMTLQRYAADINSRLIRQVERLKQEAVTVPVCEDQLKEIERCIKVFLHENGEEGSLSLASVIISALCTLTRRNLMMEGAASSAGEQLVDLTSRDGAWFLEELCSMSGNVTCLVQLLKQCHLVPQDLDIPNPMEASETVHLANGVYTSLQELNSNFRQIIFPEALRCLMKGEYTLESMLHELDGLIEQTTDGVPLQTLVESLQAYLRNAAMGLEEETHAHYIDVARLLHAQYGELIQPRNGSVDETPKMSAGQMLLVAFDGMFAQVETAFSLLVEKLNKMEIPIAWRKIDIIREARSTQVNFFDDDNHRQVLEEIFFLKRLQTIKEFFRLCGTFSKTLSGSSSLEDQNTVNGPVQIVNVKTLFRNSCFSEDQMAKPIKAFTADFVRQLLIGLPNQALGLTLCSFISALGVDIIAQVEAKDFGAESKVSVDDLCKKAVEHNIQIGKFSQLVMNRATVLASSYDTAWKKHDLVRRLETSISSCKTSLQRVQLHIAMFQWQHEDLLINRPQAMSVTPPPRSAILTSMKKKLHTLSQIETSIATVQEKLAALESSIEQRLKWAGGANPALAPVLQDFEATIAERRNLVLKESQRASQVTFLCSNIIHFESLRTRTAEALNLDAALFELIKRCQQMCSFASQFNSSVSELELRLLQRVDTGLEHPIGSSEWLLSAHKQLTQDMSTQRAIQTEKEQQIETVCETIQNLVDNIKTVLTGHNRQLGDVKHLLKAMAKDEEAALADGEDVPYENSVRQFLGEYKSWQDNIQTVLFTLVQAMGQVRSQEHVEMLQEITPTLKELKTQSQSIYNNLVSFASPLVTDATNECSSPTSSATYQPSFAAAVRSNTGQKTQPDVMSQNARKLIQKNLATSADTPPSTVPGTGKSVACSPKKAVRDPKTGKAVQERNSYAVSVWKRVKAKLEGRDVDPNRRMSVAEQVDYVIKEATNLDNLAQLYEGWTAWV
The experiment can be described thus: in vitro kinase assay of 6H-hSMG-1 with hUpf1/SMG-2 fusion protein (S1096) as substrate. It counts as biochemical. The note with it: substrate hUpf1/SMG-2 fusion protein (S1096), read-out: IC50, inhibition of the kinase activity of 6H-hSMG-1. The method, then:
The immunoprecipitates obtained in the Example 6(1) were washed with a lysis buffer F containing 0.25 mol/L LiCl, and then washed two times with a 1×kinase reaction buffer [10 mmol/L HEPES-KOH (pH7.5), 50 mmol/L β-glycerophosphoric acid, 50 mmol/L NaCl, 1 mmol/L dithiothreitol (DTT), and 10 mmol/L MnCl2].
To each of the washed immunoprecipitates, 25 μL of 2×kinase reaction buffer (that is, two-fold concentrations of the above kinase reaction buffer) was added. The phosphorylation reaction was started by adding 10 mmol/L ATP and 370 kBq [γ-^32P] ATP (6000 Ci/mmol; Amersham Pharmacia Biotech) in equal amounts (25 μL) and continued, with occasional stirring, at 30° C. for 30 minutes. The final reaction amount was maintained at 50 μL, then 25 μL of a 4×SDS sample buffer was added to stop the reaction. SDS-PAGE was performed at gel concentrations of 5.5% and 12.5%, and then autoradiography was carried out to detect the phosphorylated proteins. The phosphorylation strength of each protein was measured by an Image Analyzer BAS2000 (Fuji Film).
More particularly, 6H-hSMG-1 was prepared in accordance with the procedure described in Example 7(3). In the presence of various concentrations of wortmannin or caffeine shown in FIG. 26 and FIG. 27, the hUpf1/SMG-2 fusion protein (S1096) prepared in Example 9(3) was used as the substrate, to perform an in vitro kinase assay. […]

Experiment [4] relates to hUpf1/SMG-2 phosphorylation in HeLa cells. It counts as cell-based, human. The note with it: 30 min pretreatment, then 4.5 hours with 50 nmol/L okadaic acid, FIG. 28. The method, then:
HeLa cells were pretreated for 30 minutes in the presence or absence of various concentrations of wortmannin, caffeine, or rapamycin shown in FIG. 28. Next, the cells were treated for 4.5 hours in the presence of wortmannin, caffeine, or rapamycin and in the presence or absence of 50 nmol/L okadaic acid. Cell lysates were prepared and analyzed by Western blotting using the anti-Upf1/SMG-2 antibody.
Further, “hUPF1-P” means phosphorylated hUpf1/SMG-2, while “hUPF1” means unphosphorylated hUpf1/SMG-2.

Like-named read-outs stand apart in the source and are kept apart here.

As to `C=C1[C@@H](O)[C@@H]2O[C@]3(CC[C@H](/C=C/[C@@H](C)[C@@H]4CC(C)=C[C@@]5(O[C@H](C[C@@](C)(O)C(=O)O)CC[C@H]5O)O4)O3)CC[C@H]2O[C@@H]1[C@@H](O)C[C@H](C)[C@H]1O[C@@]2(CCCCO2)CC[C@H]1C` [okadaic acid], the “upwardly shifted (phosphorylated) band of hUpf1/SMG-2” value in experiment [1] is “upwardly shifted band of hUpf1/SMG-2 appears”. As to `C[C@@H]1C[C@@H]([C@H](O)CC2CC(=O)NC(=O)C2)C(=O)[C@@H](C)C1` [CHX, cyclohexamide], in experiment [2], the “inhibition of NMD” value is given as “inhibited NMD”.

Regarding `COC[C@H]1OC(=O)c2coc3c2[C@@]1(C)C1=C(C3=O)[C@@H]2CCC(=O)[C@@]2(C)C[C@H]1OC(C)=O` [wortmannin], the IC50 in experiment [3] (FIG. 26) is about 0.06 µM. Regarding `Cn1c(=O)c2c(ncn2C)n(C)c1=O` [caffeine], the “inhibition of the upward shift of hUpf1/SMG-2” value in experiment [4] was “inhibited the upward shift”. For the same compound, the IC50 in experiment [3] (FIG. 27) is about 300 µM. In experiment [2], the “accumulation of BGG 39PTC mRNA” value is listed as “resulted in the accumulation of BGG 39PTC”.

The term IC50 denotes the concentration needed to halve the response being measured.
